Measured values as given in patent US9630894B2, “Energy efficient method and apparatus for the extraction of biomolecules from dilute aqueous solution” (DYNASEP INC., priority 2012, dated 2017).

Tests used:
[1] = CCC extraction with DME of clarified fermentation broth from Clostridium acetobutylicum, GC and DNS assay; assay type: physicochemical
Procedure: This example describes three different runs of the CCC with fermentation broth from Clostridium acetobutylicum. […] The fermentation was intentionally interrupted prior to completion.
The extraction column operated at room temperature (˜25° C.) throughout the column. Periodic extract and raffinate samples were taken and analyzed for the constituents in the extract and raffinate discharges.
This example describes three different runs. In all cases, the mass of solvent to the mass of feed ratio (S/F) was 0.9. In all example the fermentation broth was first centrifuged to removal all cellular matter. Thus, the feed solution was clarified. In the case of the first run, the following components were measured via gas chromatograph (GC) analysis using external standard calibration. The external standard was run prior to analyzing the samples to provide individual calibration between peak area and the respective constituent under measure. […] Acetate was the conjugate base of acetic acid. Butyrate was the conjugate base of butyric acid. All components were quantified in the extract and raffinate. Since the extract and raffinate are mostly water and DME dissolves in water to approximately 20 wt. %, the samples were allowed to degas over a 24 hour period.
During the run, samples were taken of the extract and raffinate. In the case of the extract, the bulk DME was removed by reduction of pressure and addition of heat to flash the DME from the water and other solution constituents.
Extract and raffinate samples were collected at periodic intervals during the CCC testing. […] Glucose was measured via a DNS (3,5-dinitrosalicylic acid) assay.
In cases where the extract formed a two phase solution, the extract samples were diluted with distilled water to create a single phase and homogenous sample prior to GC. The dilution factor was then used to correct the GC measurements for concentrations prior to dilution.

[2] = Distribution coefficients of ABE mixtures between DME and aqueous phase in agitated pressure vessel, HPLC; assay type: physicochemical
Procedure: The compositions of the aqueous mixtures were based on concentrations typically produced in a cellulosic fermentation.
Mixtures were charged to a pressure vessel and agitated to provide adequate contacting between the aqueous and solvent (DME) phases. Heat tape was used to control the temperature of the liquid that was measured by thermocouples. Pressure and temperature measurements were taken every five minutes. After temperature and pressure stabilization agitation was ceased and the liquid phases were allowed to fully settle.
A mass balance was also performed on each component of the ABE and BE mixtures to determine a degree of accuracy of the results.

[3] = Run 3, Extract Bot, time 31 min
[4] = Run 3, Extract Bot, time 37 min
[5] = Run 3, Extract Top, time 31 min
[6] = Run 3, Extract Top, time 37 min

Compound | concentration in sample [1, 3] | concentration in sample [1, 4] | concentration in sample [1, 5] | concentration in sample [1, 6] | concentration in sample ([1]; Run 3, Extract, time 22 min) | concentration in sample ([1]; Run 3, Extract, time 27 min) | concentration in sample ([1]; Run 3, Extract, time 43 min) | concentration in sample ([1]; Run 3, Extract, time 70 min) | concentration in sample ([1]; Run 3, Extract, time 74 min) | concentration in sample ([1]; Run 3, Extract, time 78 min) | concentration in sample ([1]; Run 3, Extract, time 82 min) | concentration in sample ([1]; Run 3, Feed, time 0 min) | concentration in sample ([1]; Run 3, Raffinate, time 22 min) | concentration in sample ([1]; Run 3, Raffinate, time 27 min) | concentration in sample ([1]; Run 3, Raffinate, time 31 min) | concentration in sample ([1]; Run 3, Raffinate, time 37 min) | concentration in sample ([1]; Run 3, Raffinate, time 43 min) | concentration in sample ([1]; Run 3, Raffinate, time 70 min) | concentration in sample ([1]; Run 3, Raffinate, time 74 min) | concentration in sample ([1]; Run 3, Raffinate, time 78 min) | further results
CC(=O)C(C)O (stereo not drawn) [Acetoin] | 1640 µg/mL | 1880 µg/mL | 910 µg/mL | 1020 µg/mL | 960 µg/mL | 1000 µg/mL | 1830 µg/mL | 1620 µg/mL | 1460 µg/mL | 1600 µg/mL | 1650 µg/mL | 330 µg/mL | 70 µg/mL | 0 µg/mL | 0 µg/mL | 0 µg/mL | 0 µg/mL | 0 µg/mL | 0 µg/mL | 60 µg/mL | concentration in sample ([1]; Run 3, Raffinate, time 82 min): 0 µg/mL
sugar | 4740 µg/mL | 5780 µg/mL | 0 µg/mL | 0 µg/mL | 1460 µg/mL | 1440 µg/mL | 6200 µg/mL | 3940 µg/mL | 3870 µg/mL | 4810 µg/mL | 4950 µg/mL | 48470 µg/mL | 1390 µg/mL | 950 µg/mL | 47660 µg/mL | 41230 µg/mL | 48870 µg/mL | 42100 µg/mL | 44360 µg/mL | 48180 µg/mL | extraction into DME ([1]; Run 2): a significant portion of the sugar was not extracted; concentration in sample ([1]; Run 3, Raffinate, time 82 min): 43140 µg/mL
O [Water, water] | – | – | – | – | – | – | – | – | – | – | – | – | – | – | – | – | – | – | – | – | DC ([2]; test ABE1, […] C., 104 psig): 0.15; DC ([2]; test ABE2, 38.3 ° C., 102 psig): 0.14; DC ([2]; test ABE3, 38.3 ° C., 103 psig): 0.13; DC ([2]; test ABE4, 38.0 ° C., 103 psig): 0.14; DC ([2]; test B1, […] C., 78 psig): 0.15; DC ([2]; test B2, 28.2 ° C., 83 psig): 0.11; DC ([2]; test B3, […] C., 86 psig): 0.11; DC ([2]; test BE1, 30.1 ° C., 85 psig): 0.13; DC ([2]; test BE2, 38.9 ° C., 107 psig): 0.13; DC ([2]; test BE3, 37.6 ° C., 103 psig): 0.12; DC ([2]; test BE3, 38.4 ° C., 106 psig): 0.12
CCO [Ethanol, ethanol] | 2290 µg/mL | 2590 µg/mL | 1980 µg/mL | 2110 µg/mL | 1130 µg/mL | 1530 µg/mL | 2110 µg/mL | 1850 µg/mL | 1710 µg/mL | 1700 µg/mL | 1920 µg/mL | 800 µg/mL | 340 µg/mL | 400 µg/mL | 420 µg/mL | 640 µg/mL | 890 µg/mL | 1560 µg/mL | 710 µg/mL | 240 µg/mL | concentration in sample ([1]; Run 3, Raffinate, time 82 min): 1140 µg/mL
